In brackets after ≈: the same amount, converted by molar mass.
Assays:
[1] = Inhibition of CEM cell growth (cytostatic activity); type: cell-based; conditions: human, CEM cells, 50% cytostatic concentration, CEM cell proliferation; Table 1; read-out: CC50 (CEM)
Description: (§1) Cytostatic and antimetabolic effect of acyclic nucleoside phosphonates in vitro. The assays to examine the inhibition of CEM cell growth by the test compounds have been described previously (Balzarini et al., AIDS 5:21-28, 1991). The 50% cytostatic concentration (CC50) was defined as the concentration of compound that reduced the number of living cells by 50% . To measure MT-4 cell toxicity of the test compounds, 5×10^4 MT-4 cells were incubated in the wells of 96-well microplates in the presence or absence of different concentrations of the test compounds for 5 days at 37° C. The CC50 was then calculated from the number of living cells counted under a microscope by the trypan blue exclusion method.

[2] = test system: HIV-1(IIIB); experiment: HIV-1(IIIB)-induced cytopathicity in CEM cell cultures; type: cell-based; conditions: for EC50: Human immunodeficiency virus 1, CCRF-CEM, read-out: EC50 HIV-1 (CEM)
Excerpt: Viruses. The origins of MSV, HIV type 1 (HIV-1) (strain IIIB and Ba-L), HIV-2 (strain ROD) and FIV (strain Petaluma) have been described previously (Balzarini et al., AIDS 5: 21-28, 1991; De Clercq et al., Proc. Soc. Exp. Biol. Med. 137:590-594, 1971; Egberink et al., Proc. Natl. Acad. Sci. 87:3087-3091, 1990; Hartmann et al., Antiviral Chem. Chemother. 5:13-19, 1994; Popovic et al., Science 224:497-500, 1984). HIV-1(IIIB) and HIV-2(ROD) stocks were obtained from supernatants of virus-infected MT-4 cell cultures. HIV-1BaL was expanded in human primary M/M, whose supernatants were collected, filtered and stored at −80° C. before use. Characteristics of viral stocks used for this study were 2.1×10^8 HIV-RNA genomes/ml (corresponding to 35 ng of p24 antigen) and 5,000 tissue culture infectious doses 50% per ml (TCID50/ml) as assessed by virus titration in other primary M/M cultures. The isolation and characterization of the clinical HIV-1 isolates L1S, L6S and L6S/PMEA has been reported (Thormar et al., Proc. Natl. Acad. Sci. USA 93:3283-3287, 1995; Van Laethem et al., AIDS 15:553-561, 2001). […] HIV-1/L6S/PMEA is the clinical isolate HIV-1/L6S that has been isolated after culturing the virus for 11 passages in the presence of increasing concentrations of PMEA (adefovir).
In vitro antiviral assays. The activity against HIV-1- and HIV-2-induced cytopathicity was examined in MT-4 cell cultures at day 5 post infection and based on the determination of cell viability by trypan blue dye staining or in CEM cell cultures at day 4 to 5 post infection and based on the microscopical examination of virus-induced giant cell formation. HIV-1 and HIV-2 were added at 100 CCID50 to the cell cultures.

[3] = test system: CEM cells; experiment: Inhibition of CEM cell growth (cytostatic activity); type: cell-based; conditions: 50% cytostatic concentration, CEM cell proliferation; Table 1
Description: as §1

[4] = test system: CMV Davis; experiment: Antiviral activity, CMV Davis, Table 1a; type: cell-based; conditions: Human betaherpesvirus 5
[5] = test system: VZV TK − 07/1; experiment: Antiviral activity, VZV TK- 07/1, Table 1a; type: cell-based; conditions: Human alphaherpesvirus 3, read-out: Antiviral Activity EC50 VZV TK − 07/1
[6] = test system: VZV TK + OKA; experiment: Antiviral activity, VZV TK+ OKA, Table 1a; type: cell-based; conditions: Human alphaherpesvirus 3, read-out: Antiviral Activity EC50 VZV TK + OKA
[7] = test system: VZV TK + YS; experiment: Antiviral activity, VZV TK+ YS, Table 1a; type: cell-based; conditions: Human alphaherpesvirus 3
[8] = test system: HSV-1 (KOS); experiment: Antiviral activity, HSV-1 (KOS), Table 1a; type: cell-based; conditions: Human alphaherpesvirus 1
[9] = test system: HIV-2; experiment: Antiviral activity, HIV-2, Table 1a; type: cell-based; conditions: Human immunodeficiency virus 2
[10] = test system: HSV-1 TK- VMW 1837; experiment: Antiviral activity, HSV-1 TK- VMW 1837, Table 1a; type: cell-based; conditions: Human alphaherpesvirus 1, read-out: Antiviral Activity EC50 HSV-1 TK- VMW 1837
[11] = test system: HIV-1; experiment: microbe, parasite or virus in culture; conditions: Human immunodeficiency virus 1, read-out: Antiviral Activity EC50 HIV-1
[12] = test system: MSV; experiment: Antiviral activity, MSV, Table 1a; type: cell-based
[13] = test system: CMV AD-169; experiment: Antiviral activity, CMV AD-169, Table 1a; type: cell-based; conditions: Human betaherpesvirus 5, AD169
[14] = test system: HSV-2 (G); experiment: Antiviral activity, HSV-2 (G), Table 1a; type: cell-based; conditions: Human alphaherpesvirus 2
[15] = test system: VZV TK − YS/R; experiment: Antiviral activity, VZV TK- YS/R, Table 1a; type: cell-based; conditions: Human alphaherpesvirus 3, read-out: Antiviral Activity EC50 VZV TK − YS/R
[16] = HIV-1(IIIB)-induced cytopathicity in CEM cell cultures, Table 1

Nc1cc(OCCOCP(=O)(O)O)ncn1 [Compound 3, 4-amino-6-[2-(phosphonomethoxy)ethoxy]pyrimidine]
CC50 [1]: > 100 µg/mL | Antiretroviral (anti-HIV-1) activity in CEM cell cultures, in words [2]: complete annihilation of the antiretroviral activity | EC50 [2, 16]: > 100 µg/mL

Nc1nc(O)cc(SCCOCP(=O)(O)O)n1 [Compound 5, 2-amino-4-hydroxy-6-{[2-(phosphono-methoxy)ethyl]sulfanyl}pyrimidine]
CC50 [1]: > 100 µg/mL | Antiretroviral (anti-HIV-1) activity in CEM cell cultures, in words [2]: completely inactive | EC50 [2, 16]: > 100 µg/mL

CN(C)c1cc(OCCOCP(=O)(O)O)nc(N)n1 [Compound 6, 2-amino-4-dimethylamino-6-[2-(phosphonomethoxy)-ethoxy]pyrimidine]
CC50 [1]: > 100 µg/mL | Antiretroviral (anti-HIV-1) activity in CEM cell cultures, in words [2]: complete annihilation of the antiretroviral activity | EC50 [2, 16]: > 100 µg/mL

Nc1nc(NC2CC2)cc(OCCOCP(=O)(O)O)n1 [Compound 7, 2-amino-4-cyclopropylamino-6-[2-(phosphonomethoxy)ethoxy]pyrimi-dine]
CC50 (CEM) [3]: >100 µg/mL | Antiretroviral (anti-HIV-1) activity in CEM cell cultures, in words [2]: complete annihilation of the antiretroviral activity | EC50 HIV-1 (CEM) [2, 16]: >100 µg/mL

CSc1nc(N)cc(OCCOCP(=O)(O)O)n1 [Compound 8, 4-amino-2-methylsulfanyl-6-[2-(phosphonomethoxy)ethoxy]pyrimidine]
CC50 [1]: > 100 µg/mL | Antiretroviral (anti-HIV-1) activity in CEM cell cultures, in words [2]: complete annihilation of the antiretroviral activity | EC50 [2, 16]: > 100 µg/mL

Cc1cc(OCCOCP(=O)(O)O)nc(N)n1 [Compound 9, 2-amino-4-methyl-6-[2-(phosphonomethoxy)ethoxy]pyrimidine]
CC50 [1]: > 100 µg/mL | Antiretroviral (anti-HIV-1) activity in CEM cell cultures, in words [2]: complete annihilation of the antiretroviral activity | EC50 [2, 16]: > 100 µg/mL

Nc1cc(OCCOCP(=O)(O)O)nc(N)n1 [Compound H-3404]
EC50 [4]: > 50 µg/mL | EC50 [5]: 2.5 µg/mL (≈ 9.46 µM) | EC50 [6]: 1.2 µg/mL | EC50 [7]: 1.1 µg/mL | EC50 [8]: 6.5 µg/mL (≈ 24.6 µM) | EC50 [9]: 0.43 ± 0.32 µg/mL (≈ 1.63 µM) | EC50 [10]: 9.6 µg/mL (≈ 36.3 µM) | EC50 [11]: 0.8 µg/mL (≈ 3.03 µM) | EC50 [12]: 0.035 ± 0.002 µg/mL (≈ 0.132 µM) | EC50 [13]: > 50 µg/mL | EC50 [14]: 24 µg/mL (≈ 90.8 µM) | EC50 [15]: 1.6 µg/mL (≈ 6.06 µM)

Nc1cc(SCCOCP(=O)(O)O)nc(N)n1 [Compound H-3408]
EC50 [4]: > 50 µg/mL | EC50 [5]: 20 µg/mL (≈ 71.4 µM) | EC50 [6]: 7.5 µg/mL | EC50 [7]: 7 µg/mL | EC50 [8]: 29 µg/mL (≈ 103 µM) | EC50 [9]: 3 ± 1.4 µg/mL (≈ 10.7 µM) | EC50 [10]: 48 µg/mL (≈ 171 µM) | EC50 [11]: 5.5 ± 2.1 µg/mL (≈ 19.6 µM) | EC50 [12]: 1.7 µg/mL (≈ 6.07 µM) | EC50 [13]: > 50 µg/mL | EC50 [14]: ≥ 80 µg/mL | EC50 [15]: 15 µg/mL (≈ 53.5 µM)

Nc1nc(NC2CC2)cc(OCCOCP(=O)(O)O)n1 [Compound H-3435]
EC50 [4]: > 50 µg/mL | EC50 [5]: > 50 µg/mL | EC50 [6]: > 20 µg/mL | EC50 [7]: > 50 µg/mL | EC50 [8]: 240 µg/mL (≈ 789 µM) | EC50 [9]: > 100 µg/mL | EC50 [11]: > 100 µg/mL | EC50 [12]: > 40 µg/mL | EC50 [13]: > 50 µg/mL | EC50 [14]: > 80 µg/mL | EC50 [15]: > 50 µg/mL

Nc1nc(OCCOCP(=O)(O)O)cc(OCCOCP(=O)(O)O)n1 [Compound H-3444]
EC50 [4]: > 50 µg/mL | EC50 [5]: > 50 µg/mL | EC50 [6]: > 50 µg/mL | EC50 [7]: > 50 µg/mL | EC50 [8]: 240 µg/mL (≈ 595 µM) | EC50 [9]: 80 ± 34.6 µg/mL (≈ 198 µM) | EC50 [11]: 56.7 ± 37.9 µg/mL (≈ 141 µM) | EC50 [12]: 4.26 ± 0.75 µg/mL (≈ 10.6 µM) | EC50 [13]: > 50 µg/mL | EC50 [14]: > 400 µg/mL | EC50 [15]: > 50 µg/mL

Nc1nc(O)cc(OCCOCP(=O)(O)O)n1 [Compound H-3574]
EC50 [4]: 16 µg/mL (≈ 60.3 µM) | EC50 [6]: 1.1 µg/mL | EC50 [7]: 0.9 µg/mL | EC50 [8]: 9.6 µg/mL (≈ 36.2 µM) | EC50 [11]: > 0.8 µg/mL | EC50 [12]: 0.08 µg/mL (≈ 0.302 µM) | EC50 [13]: 14 µg/mL (≈ 52.8 µM) | EC50 [14]: 9.6 µg/mL (≈ 36.2 µM) | EC50 [15]: 0.6 µg/mL (≈ 2.26 µM)

Nc1nc2c(ncn2CCOCP(=O)(O)O)c(=O)[nH]1 [PMEG, reference compound]
EC50 as such ([2]; HIV-1 (IIIB) in CEM, no addition, Table 3): >0.05 µg/mL | EC50 upon addition of Ade (100 μM) ([2]; HIV-1 (IIIB) in CEM, Ade 100 μM): >0.05 µg/mL | EC50 upon addition of Ado (400 μM) ([2]; HIV-1 (IIIB) in CEM, Ado 400 μM): >0.05 µg/mL | EC50 upon addition of Guo (10 μM) ([2]; HIV-1 (IIIB) in CEM, Guo 10 μM): >0.05 µg/mL | EC50 upon addition of dCyd (1 mM) ([2]; HIV-1 (IIIB) in CEM, dCyd 1 mM): >0.25 µg/mL | EC50 upon addition of dThd (10 μM) ([2]; HIV-1 (IIIB) in CEM, dThd 10 μM): >0.25 µg/mL
